Results from patent US10519177B2, “Heterocyclic compounds and uses thereof” (Plexxikon Inc., priority 2013, dated 2019).
Like-named read-outs stand apart in the source and are kept apart here.

Experiments:
[1] = test system: MV-4-11 cells; experiment: Oncology cell growth assay MV-4-11 (CellTiter Glo); format: cell-based; conditions: Homo sapiens, MV4-11, 72 h, read-out: Cell activity (IC50 μM) MV-4-11 3d-Growth
In short: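 Growth read by CellTiter Glo luminescence after 72 h compound treatment of MLL-AF4-bearing MV-4-11 cells (3000/well). Titration: 8 points, 1:3 steps, maximum 10 μM, 0.2% DMSO final. Data normalized to DMSO wells, four-parameter fit gives pIC50.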

[2] = target: BRD4-BD12 (1-477) (Homo sapiens (Human), UniProt O60885); experiment: Alphascreen binding assay BRD4-BD12; conditions: BRD4(1 2) H4; read-out: Biochemical activity (IC50 μM) BRD4(1 2) H4
In short: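 In this competition format, compounds displace a biotinylated tetra-acetyl H4 peptide from E. coli-expressed human BRD4 bromodomain constructs captured on nickel chelate beads. The reaction runs at pH 7.5 with 2 mM DTT and detergent for 1 h at room temperature before a 30 min bead step.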

Row | SMILES | IC50 ([1]; MV-4-11, 3d growth) | IC50 [2] | IC50 [1]
1 | CC[C@@H](c1ccccn1)n1cc(-c2ccc(C)c(C(=O)O)c2)c2ncc(-c3c(C)noc3C)cc21 [P-1024, 5-[6-(3,5-dimethylisoxazol-4-yl)-1-[(1S)-1-(2-pyridyl)propyl]pyrrolo[3,2-b]pyridin-3-yl]-2-methyl-benzoic acid] | < 1 µM | < 1 µM | –
2 | Cc1noc(C)c1-c1cnc2c(-c3ccc(C(=O)O)cc3)cn(C(c3ccccn3)C3CCCCC3)c2c1 (stereo not drawn) [P-1014, 4-[1-[cyclohexyl(2-pyridyl)methyl]-6-(3,5-dimethylisoxazol-4-yl)pyrrolo[3,2-b]pyridin-3-yl]benzoic acid] | < 1 µM | < 1 µM | –
3 | Cc1noc(C)c1-c1ccc2c(-c3ccc(C(=O)O)cc3F)cn(C(c3ccccc3)c3ccccn3)c2c1 (stereo not drawn) [P-1044, 4-[6-(3,5-dimethylisoxazol-4-yl)-1-[phenyl(2-pyridyl)methyl]indol-3-yl]-3-fluoro-benzoic acid] | < 1 µM | < 1 µM | –
4 | Cc1ccc(-c2cn([C@@H](C)c3ccccn3)c3cc(-c4c(C)noc4C)cnc23)cn1 [P-1019, 3,5-dimethyl-4-[3-(6-methyl-3-pyridyl)-1-[(1S)-1-(2-pyridyl)ethyl]pyrrolo[3,2-b]pyridin-6-yl]isoxazole] | < 1 µM | < 1 µM | –
5 | Cc1noc(C)c1-c1cnc2c(I)cn(C(c3ccccc3)c3ccccn3)c2c1 (stereo not drawn) [P-0906, 4-[3-iodo-1-[phenyl(2-pyridyl)methyl]pyrrolo[3,2-b]pyridin-6-yl]-3,5-dimethyl-isoxazole] | < 1 µM | < 1 µM | –
6 | Cc1noc(C)c1-c1cnc2c(-c3ccc(C#N)nc3)cn(CC3(C)CCOCC3)c2c1 [P-0944, 5-[6-(3,5-dimethylisoxazol-4-yl)-1-[(4-methyltetrahydropyran-4-yl)methyl]pyrrolo[3,2-b]pyridin-3-yl]pyridine-2-carbonitrile] | < 1 µM | < 1 µM | –
7 | Cc1noc(C)c1-c1ccc2c(-c3ccc(C(=O)O)cc3)cn([C@@H](C)c3ccccn3)c2c1 [P-1030, 4-[6-(3,5-dimethylisoxazol-4-yl)-1-[(1S)-1-(2-pyridyl)ethyl]indol-3-yl]benzoic acid] | < 1 µM | < 1 µM | –
8 | CCOP(=O)(OCC)c1ccc(-c2cn(C(C)c3ccccc3)c3cc(-c4c(C)noc4C)cnc23)cc1 (stereo not drawn) [P-0927, 4-[3-(4-diethoxyphosphorylphenyl)-1-(1-phenylethyl)pyrrolo[3,2-b]pyridin-6-yl]-3,5-dimethyl-isoxazole] | – | < 1 µM | < 1 µM
9 | Cc1cc(-c2cn(C(c3ccccn3)C3CCCC3)c3cc(-c4c(C)noc4C)cnc23)ccc1C(=O)O (stereo not drawn) [P-1038, 4-[1-[cyclopentyl(2-pyridyl)methyl]-6-(3,5-dimethylisoxazol-4-yl)pyrrolo[3,2-b]pyridin-3-yl]-2-methyl-benzoic acid] | < 1 µM | < 1 µM | –
10 | COC(=O)Cc1ccc(-c2cn(C(c3ccccn3)C3CCCCC3)c3cc(-c4c(C)noc4C)cnc23)cc1 (stereo not drawn) [P-1017, methyl 2-[4-[1-[cyclohexyl(2-pyridyl)methyl]-6-(3,5-dimethylisoxazol-4-yl)pyrrolo[3,2-b]pyridin-3-yl]phenyl]acetate] | < 1 µM | < 1 µM | –
11 | Cc1noc(C)c1-c1cnc2c(I)cn(C(c3ccccn3)C3CCOCC3)c2c1 (stereo not drawn) [P-1034, 4-[3-iodo-1-[2-pyridyl(tetrahydropyran-4-yl)methyl]pyrrolo[3,2-b]pyridin-6-yl]-3,5-dimethyl-isoxazole] | < 1 µM | < 1 µM | –
12 | Cc1noc(C)c1-c1cnc2c(-c3ccc(C(=O)O)cc3)cn(Cc3ccccc3F)c2c1 [P-0926, 4-[6-(3,5-dimethylisoxazol-4-yl)-1-[(2-fluorophenyl)methyl]pyrrolo[3,2-b]pyridin-3-yl]benzoic acid] | < 1 µM | < 1 µM | –
13 | COC(=O)c1ccc(-c2cn(C(c3ccccn3)C3CCOCC3)c3cc(-c4c(C)noc4C)cnc23)cc1 (stereo not drawn) [P-1035, methyl 4-[6-(3,5-dimethylisoxazol-4-yl)-1-[2-pyridyl(tetrahydropyran-4-yl)methyl]pyrrolo[3,2-b]pyridin-3-yl]benzoate] | < 1 µM | < 1 µM | –
14 | Cc1noc(C)c1-c1cnc2c(-c3ccc(C(=O)O)c(F)c3)cn(C(c3ccccn3)C3CCCC3)c2c1 (stereo not drawn) [P-1037, 4-[1-[cyclopentyl(2-pyridyl)methyl]-6-(3,5-dimethylisoxazol-4-yl)pyrrolo[3,2-b]pyridin-3-yl]-2-fluoro-benzoic acid] | < 1 µM | < 1 µM | –
15 | Cc1noc(C)c1-c1cnc2c(-c3ccc(CC(=O)O)cc3)cn(C(c3ccccc3)c3ccccn3)c2c1 (stereo not drawn) [P-0903, 2-[4-[6-(3,5-dimethylisoxazol-4-yl)-1-[phenyl(2-pyridyl)methyl]pyrrolo[3,2-b]pyridin-3-yl]phenyl]acetic acid] | < 1 µM | < 1 µM | –
16 | CC[C@@H](c1ccccn1)n1cc(-c2ccc(C(=O)OC)cc2)c2ncc(-c3c(C)noc3C)cc21 [P-0966, methyl 4-[6-(3,5-dimethylisoxazol-4-yl)-1-[(1S)-1-(2-pyridyl)propyl]pyrrolo[3,2-b]pyridin-3-yl]benzoate] | < 1 µM | < 1 µM | –
17 | Cc1noc(C)c1-c1cnc2c(-c3cnn(CC(F)(F)F)c3)cn(CC3(C)CCOCC3)c2c1 [P-0971, 3,5-dimethyl-4-[1-[(4-methyltetrahydropyran-4-yl)methyl]-3-[1-(2,2,2-trifluoroethyl)pyrazol-4-yl]pyrrolo[3,2-b]pyridin-6-yl]isoxazole] | < 1 µM | < 1 µM | –
18 | Cc1ccc(-c2cn(CC3(C)CCOCC3)c3cc(-c4c(C)noc4C)cnc23)cn1 [P-0972, 3,5-dimethyl-4-[3-(6-methyl-3-pyridyl)-1-[(4-methyltetrahydropyran-4-yl)methyl]pyrrolo[3,2-b]pyridin-6-yl]isoxazole] | < 1 µM | < 1 µM | –
19 | COC(=O)c1ccc(-c2cn([C@@H](C)c3ccccn3)c3cc(-c4c(C)noc4C)cnc23)s1 [P-1006, methyl 5-[6-(3,5-dimethylisoxazol-4-yl)-1-[(1S)-1-(2-pyridyl)ethyl]pyrrolo[3,2-b]pyridin-3-yl]thiophene-2-carboxylate] | < 1 µM | < 1 µM | –
20 | COC(=O)C1(c2ccc(-c3cn(Cc4ccccn4)c4cc(-c5c(C)noc5C)cnc34)cc2)CC1 [P-0952, methyl 1-[4-[6-(3,5-dimethylisoxazol-4-yl)-1-(2-pyridylmethyl)pyrrolo[3,2-b]pyridin-3-yl]phenyl]cyclopropanecarboxylate] | < 1 µM | < 1 µM | –
21 | CNC(=O)c1ccc(-c2cn([C@@H](C)c3ccccn3)c3cc(-c4c(C)noc4C)cnc23)cn1 [P-0978, 5-[6-(3,5-dimethylisoxazol-4-yl)-1-[(1S)-1-(2-pyridyl)ethyl]pyrrolo[3,2-b]pyridin-3-yl]-N-methyl-pyridine-2-carboxamide] | < 1 µM | < 1 µM | –
22 | Cc1noc(C)c1-c1cnc2c(-c3ccc(NS(C)(=O)=O)cc3)cn([C@@H](C)c3ccccn3)c2c1 [P-0979, N-[4-[6-(3,5-dimethylisoxazol-4-yl)-1-[(1S)-1-(2-pyridyl)ethyl]pyrrolo[3,2-b]pyridin-3-yl]phenyl]methanesulfonamide] | < 1 µM | < 1 µM | –
23 | COC(=O)c1ccc(-c2cn(Cc3cccc(C)n3)c3cc(-c4c(C)noc4C)cnc23)cc1 [P-0915, methyl 4-[6-(3,5-dimethylisoxazol-4-yl)-1-[(6-methyl-2-pyridyl)methyl]pyrrolo[3,2-b]pyridin-3-yl]benzoate] | < 1 µM | < 1 µM | –
24 | Cc1noc(C)c1-c1cnc2c(-c3cccc(NS(C)(=O)=O)c3)cn([C@@H](C)c3ccccn3)c2c1 [P-0981, N-[3-[6-(3,5-dimethylisoxazol-4-yl)-1-[(1S)-1-(2-pyridyl)ethyl]pyrrolo[3,2-b]pyridin-3-yl]phenyl]methanesulfonamide] | < 1 µM | < 1 µM | –
25 | Cc1noc(C)c1-c1cnc2c(I)cn([C@@H](c3ccccn3)C3CC3)c2c1 [P-0985, 4-[1-[(R)-cyclopropyl(2-pyridyl)methyl]-3-iodo-pyrrolo[3,2-b]pyridin-6-yl]-3,5-dimethyl-isoxazole] | < 1 µM | < 1 µM | –
26 | Cc1noc(C)c1-c1cnc2c(-c3ccc(C(=O)O)cc3)cn(C(c3ccccn3)C3CCOCC3)c2c1 (stereo not drawn) [P-1036, 4-[6-(3,5-dimethylisoxazol-4-yl)-1-[2-pyridyl(tetrahydropyran-4-yl)methyl]pyrrolo[3,2-b]pyridin-3-yl]benzoic acid] | < 1 µM | < 1 µM | –
27 | Cc1noc(C)c1-c1cnc2c(-c3ccc(CC(=O)O)cc3)cn(C(c3ccccn3)C3CCCC3)c2c1 (stereo not drawn) [P-0996, 2-[4-[1-[cyclopentyl(2-pyridyl)methyl]-6-(3,5-dimethylisoxazol-4-yl)pyrrolo[3,2-b]pyridin-3-yl]phenyl]acetic acid] | < 1 µM | < 1 µM | –
28 | CC[C@@H](c1ccccn1)n1cc(-c2ccc(C(=O)O)cc2)c2ncc(-c3c(C)noc3C)cc21 [P-0967, 4-[6-(3,5-dimethylisoxazol-4-yl)-1-[(1S)-1-(2-pyridyl)propyl]pyrrolo[3,2-b]pyridin-3-yl]benzoic acid] | < 1 µM | < 1 µM | –
29 | Cc1ccc(-c2cn(C(c3ccccc3)c3ccccn3)c3cc(-c4c(C)noc4C)ccc23)cn1 (stereo not drawn) [P-1041, 3,5-dimethyl-4-[3-(6-methyl-3-pyridyl)-1-[phenyl(2-pyridyl)methyl]indol-6-yl]isoxazole] | < 1 µM | < 1 µM | –
30 | Cc1ccc(-c2cn([C@@H](C)c3ccccn3)c3cc(-c4c(C)noc4C)cnc23)cc1 [P-0900, 3,5-dimethyl-4-[3-(p-tolyl)-1-[(1S)-1-(2-pyridyl)ethyl]pyrrolo[3,2-b]pyridin-6-yl]isoxazole] | < 1 µM | < 1 µM | –
